The target of one assay is T1, BRD4(BD1) (Homo sapiens, UniProt O60885).
T1 construct: His; made in house
Briefly: BRD4 AlphaLisa binding assay (Alphascreen). The protocol: Specifically, in a 384 well ProxiPlate BRD4(BD1) (30 nM final) was combined with peptide (200 nM final) in 40 mM HEPES (pH 7.0), 40 mM NaCl, 1 mM DTT, 0.01% (w/v) BSA, and 0.008% (w/v) Brij-35 either in the presence of DMSO (final 1.2% DMSO) or compound dilution series in DMSO. After 20 minute incubation at room temperature Alpha streptavidin donor beads and AlphaLisa anti-Flag acceptor beads were added to a final concentration of 10 ug/mL each. After three hours equilibration plates were read on an Envision instrument and IC50s calculated using a four parameter non-linear curve fit.
(In Alpha technology, singlet oxygen from a donor bead excites a nearby acceptor bead.)

The next assay deals with IL-6 secretion. The assay is described as follows: Cell-based IL-6 quantification assay (ELISA, Mesoscale) in LPS-stimulated THP-1 cells. As to conditions: Homo sapiens, THP-1, 16 h, read-out: IL6. As to the method:
100,000 THP-1 cells were seeded in RPMI1640-10% FBS in 96-well plates. LPS (E. Coli Invitrogen) in RPMI-10% FBS at a final concentration of 4 μg/mL was added to the wells and the cells are then incubated in the presence of various concentrations of compounds for 16 h. Plates are spun ([…], 5 min), an aliquot of 25 uL supernatant is transferred in to an ELISA plate (Mesoscale technology, MSD) and the detection of IL-6 is performed using manufacturer's instructions. The amount of cells in each well is assessed using CellTiter-Glo® (Promega). The ratio of ELISA value/CellTiter-Glo value is used to calculate the percent of inhibition of IL-6 secretion.
On the technique in general: An ELISA detects its analyte on a solid surface through an enzyme-linked reagent.

Setting [1] is: Table 6, BRD4(BD1) 30 nM, H4-tetraacetyl peptide 200 nM, read-out: BRD4 Alphascreen IC50.
[2] abbreviates: Table 7, THP-1 cells, LPS 4 μg/mL, 16 h, normalised to CellTiter-Glo.
[3] abbreviates: Table 14, BRD4 AlphaLisa Binding Assay, read-out: Alpha screen.

Like-named read-outs stand apart in the source and are kept apart here. Bounds are passed on as bounds.

`Cc1noc2c1-c1sc(C)c(C)c1C(c1cc[nH]n1)=NC2CC(N)=O` (stereo not shown) [Compound 100]: the IC50 was less than 500 nM at BRD4(BD1) (setting [1]) and 500 to 1000 nM in the assay with IL-6 secretion (setting [2]).

With `Cc1noc2c1-c1sc(C)c(C)c1C(c1ccn(C)n1)=NC2CC(N)=O` (stereo not shown) [Compound 101], the IC50 was less than 500 nM at BRD4(BD1) (setting [1]) and 500 to 1000 nM in the assay on IL-6 secretion (setting [2]).

`Cc1noc2c1-c1sc(C)c(C)c1C(c1ccnnc1)=NC2CC(N)=O` (stereo not shown) [Compound 104]: the IC50 at BRD4(BD1) (setting [1]) and with IL-6 secretion (setting [2]) was 500 to 1000 nM throughout.

Consider `Cc1noc2c1-c1sc(C)c(C)c1C(c1cncnc1)=NC2CC(N)=O` (stereo not shown) [Compound 105], for which the IC50 on BRD4(BD1) (setting [1]) and in the assay with IL-6 secretion (setting [2]) was more than 1000 nM in each case.

Regarding `Cc1noc2c1-c1sc(C)c(C)c1C(c1cccnc1)=NC2CC(N)=O` (stereo not shown) [Compound 106], the IC50 at BRD4(BD1) (setting [1]) and in the assay with IL-6 secretion (setting [2]) was less than 500 nM throughout.

With `Cc1noc2c1-c1sc(C)c(C)c1C(c1ccncc1)=NC2CC(N)=O` (stereo not shown) [Compound 107], the IC50 on BRD4(BD1) (setting [1]) and in the assay on IL-6 secretion (setting [2]) was less than 500 nM throughout.

Consider `Cc1noc2c1-c1sc(C)c(C)c1C(c1ccccc1Cl)=NC2CC(N)=O` (stereo not shown) [Compound 111], for which the IC50 on BRD4(BD1) (setting [1]) and with IL-6 secretion (setting [2]) was less than 500 nM each time.

In the case of `Cc1noc2c1-c1sc(C)c(C)c1C(c1cccc(C(N)=O)c1)=NC2CC(N)=O` (stereo not shown) [Compound 117], the IC50 on BRD4(BD1) (setting [1]) and with IL-6 secretion (setting [2]) was less than 500 nM each time.

Consider `Cc1noc2c1-c1sc(C)c(C)c1C(c1ccn(C)c(=O)c1)=NC2CC(N)=O` (stereo not shown) [Compound 119], for which the figures for the IC50 at BRD4(BD1) (setting [1]) and in the assay on IL-6 secretion (setting [2]) were less than 500 nM and 500 to 1000 nM, respectively.

Turning to `Cc1noc2c1-c1sc(C)c(C)c1C(N1CCN(C)CC1)=NC2CC(N)=O` (stereo not shown) [Compound 121], the IC50 on BRD4(BD1) (setting [1]) and in the assay with IL-6 secretion (setting [2]) was more than 1000 nM in each case.

Take `Cc1noc2c1-c1sc(C)c(C)c1C(N1CCOCC1)=NC2CC(N)=O` (stereo not shown) [Compound 122]: the IC50 on BRD4(BD1) (setting [1]) and in the assay on IL-6 secretion (setting [2]) was more than 1000 nM throughout.

Consider `Cc1noc2c1-c1sc(C)c(C)c1C(N1CCCN(C)CC1)=NC2CC(N)=O` (stereo not shown) [Compound 123], for which the IC50 at BRD4(BD1) (setting [1]) and in the assay with IL-6 secretion (setting [2]) was more than 1000 nM each time.

For `Cc1noc2c1-c1sc(C)c(C)c1C(C1CC1)=NC2CC(N)=O` (stereo not shown) [Compound 125], the IC50 at BRD4(BD1) (setting [1]) and in the assay on IL-6 secretion (setting [2]) was more than 1000 nM each time.

On to `Cc1noc2c1-c1sc(C)c(C)c1C(Cc1ccccc1)=N[C@H]2CC(N)=O` [Compound 127, 2-((6S)-4-benzyl-2,3,9-trimethyl-6H-isoxazolo[5,4-c]thieno[2,3-e]azepin-6-yl)acetamide], for which the IC50 at BRD4(BD1) (setting [1]) and with IL-6 secretion (setting [2]) was more than 1000 nM each time.

For the compound `Cc1cc(Cl)ccc1C1=NC(CC(N)=O)c2onc(C)c2-c2ccccc21` (stereo not shown) [Compound 151], the IC50 on BRD4(BD1) (setting [1]) and in the assay on IL-6 secretion (setting [2]) was less than 500 nM in each case.

For the compound `Cc1onc2c1-c1ccccc1C(c1ccc(Cl)cc1)=NC2O` (stereo not shown) [Compound 153, 6-(4-chlorophenyl)-1-methyl-4H-benzo[c]isoxazolo[4,3-e]azepin-4-ol], the IC50 on BRD4(BD1) (setting [1]) and in the assay on IL-6 secretion (setting [2]) was more than 1000 nM in each case.

Consider `Cc1onc2c1-c1ccccc1C(c1ccc(Cl)cc1)=NC2N` (stereo not shown) [Compound 154, 6-(4-chlorophenyl)-1-methyl-4H-benzo[c]isoxazolo[4,3-e]azepin-4-amine], for which the IC50 on BRD4(BD1) (setting [1]) and in the assay with IL-6 secretion (setting [2]) was more than 1000 nM each time.

In the case of `Cc1onc2c1-c1ccccc1C(c1ccc(Cl)cc1)=NC2C` (stereo not shown) [Compound 156, 6-(4-chlorophenyl)-1,4-dimethyl-4H-benzo[c]isoxazolo[4,3-e]azepine], the IC50 was less than 500 nM on BRD4(BD1) (setting [1]) and more than 1000 nM with IL-6 secretion (setting [2]).

In the case of `CCOC(=O)C[C@@H]1N=C(c2ccc(Cl)cc2)c2ccccc2-c2c1noc2C` [Compound 162, Ethyl 2-((4S)-6-(4-chlorophenyl)-1-methyl-4H-benzo[c]isoxazolo[4,3-e]azepin-4-yl)acetate], the IC50 on BRD4(BD1) (setting [1]) was less than 500 nM; in the assay with IL-6 secretion (setting [2]), more than 1000 nM.

With `CCNC(=O)C[C@H]1N=C(c2ccc(Cl)cc2)c2c(sc(C)c2C)-c2c(C)noc21` [Compound 167, 2-((6R)-4-(4-chlorophenyl)-2,3,9-trimethyl-6H-isoxazolo[4,5-e]thieno[3,2-c]azepin-6-yl)-N-ethylacetamide], the IC50 on BRD4(BD1) (BRD4 Alphascreen IC50, Table 6, BRD4(BD1) 30 nM, H4-tetraacetyl peptide 200 nM) was more than 1000 nM.

As for `Cc1noc2c1-c1sc(C)c(C)c1C(C1CCOCC1)=N[C@H]2CC(N)=O` [Compound 168, 2-((6S)-2,3,9-trimethyl-4-(tetrahydro-2H-pyran-4-yl)-6H-isoxazolo[5,4-c]thieno[2,3-e]azepin-6-yl)acetamide], the IC50 on BRD4(BD1) (setting [1]) and in the assay on IL-6 secretion (setting [2]) was more than 1000 nM in each case.

Regarding `Cc1noc2c1-c1ccnc(F)c1C(c1ccc(Cl)cc1)=NC2` [Compound 169, 6-(4-Chlorophenyl)-7-fluoro-1-methyl-4H-isoxazolo[5,4-c]pyrido[4,3-e]azepine], the IC50 at BRD4(BD1) (setting [1]) and in the assay with IL-6 secretion (setting [2]) was more than 1000 nM throughout.

For `COc1nccc2c1C(c1ccc(Cl)cc1)=NCc1onc(C)c1-2` [Compound 170, 6-(4-Chlorophenyl)-7-methoxy-1-methyl-4H-isoxazolo[5,4-c]pyrido[4,3-e]azepine], the IC50 on BRD4(BD1) (setting [1]) is less than 500 nM; in the assay on IL-6 secretion (setting [2]), more than 1000 nM.

Consider `Cc1noc2c1-c1ccnc(OC(C)C)c1C(c1ccc(Cl)cc1)=NC2` [Compound 171, 6-(4-Chlorophenyl)-7-isopropoxy-1-methyl-4H-isoxazolo[5,4-c]pyrido[4,3-e]azepine], for which the IC50 at BRD4(BD1) (setting [1]) and in the assay on IL-6 secretion was more than 1000 nM each time.

On to `Cc1noc2c1-c1cc[nH]c(=O)c1C(c1ccc(Cl)cc1)=NC2` [Compound 176, 6-(4-Chlorophenyl)-1-methyl-4H-isoxazolo[5,4-c]pyrido[4,3-e]azepin-7(8H)-one], for which the IC50 on BRD4(BD1) (setting [1]) and in the assay with IL-6 secretion (setting [2]) was more than 1000 nM each time.

With `Cc1noc2c1-c1ccn(C)c(=O)c1C(c1ccc(Cl)cc1)=NC2` [Compound 177, 6-(4-Chlorophenyl)-1,8-dimethyl-4H-isoxazolo[5,4-c]pyrido[4,3-e]azepin-7(8H)-one], the IC50 on BRD4(BD1) (setting [1]) and with IL-6 secretion (setting [2]) was more than 1000 nM in each case.

Regarding `Cc1noc2c1-c1ccn(-c3ccc(C#N)cc3)c(=O)c1C(c1ccc(Cl)cc1)=NC2` [Compound 178, 4-(6-(4-Chlorophenyl)-1-methyl-7-oxo-4H-isoxazolo[5,4-c]pyrido[4,3-e]azepin-8(7H)-yl)benzonitrile], the IC50 at BRD4(BD1) (setting [1]) and in the assay on IL-6 secretion (setting [2]) was more than 1000 nM throughout.

`Cc1noc2c1-c1ccn(-c3ccccc3)c(=O)c1C(c1ccc(Cl)cc1)=NC2` [Compound 179, 6-(4-Chlorophenyl)-1-methyl-8-phenyl-4H-isoxazolo[5,4-c]pyrido[4,3-e]azepin-7(8H)-one]: the IC50 on BRD4(BD1) (setting [1]) and in the assay on IL-6 secretion (setting [2]) was more than 1000 nM each time.

Turning to `CC(=O)NC[C@@H]1N=C(c2ccc(Cl)cc2)c2c(sc(C)c2C)-c2c(C)noc21` [Compound 182, N-(((6S)-4-(4-Chlorophenyl)-2,3,9-trimethyl-6H-isoxazolo[5,4-c]thieno[2,3-e]azepin-6-yl)methyl)acetamide], the IC50 at BRD4(BD1) (setting [1]) was less than 500 nM; in the assay with IL-6 secretion (setting [2]) it was 500 to 1000 nM.

Consider `COC(=O)NC[C@@H]1N=C(c2ccc(Cl)cc2)c2c(sc(C)c2C)-c2c(C)noc21` [Compound 183, Methyl (((6S)-4-(4-chlorophenyl)-2,3,9-trimethyl-6H-isoxazolo[5,4-c]thieno[2,3-e]azepin-6-yl)methyl)carbamate], for which the IC50 is less than 500 nM at BRD4(BD1) (setting [1]) and 500 to 1000 nM in the assay with IL-6 secretion (setting [2]).

As to `Cc1noc2c1-c1sc(C)c(C)c1C(Nc1ccc(Cl)cc1)=N[C@H]2CC(N)=O` [Compound 185, 2-((6S)-4-((4-Chlorophenyl)amino)-2,3,9-trimethyl-6H-isoxazolo[5,4-c]thieno[2,3-e]azepin-6-yl)acetamide], the IC50 at BRD4(BD1) (setting [1]) and in the assay with IL-6 secretion (setting [2]) was more than 1000 nM throughout.

For the compound `CCNC(=O)C[C@H]1N=C(c2ccc(Cl)cc2)c2ccccc2-c2c1noc2C` [Compound 189, 2-((4R)-6-(4-chlorophenyl)-1-methyl-4H-benzo[c]isoxazolo[4,3-e]azepin-4-yl)-N-ethylacetamide], at BRD4(BD1) (setting [1]), the IC50 is more than 1000 nM.

Turning to `Cc1onc2c1-c1ccccc1C(c1ccc(Cl)cc1)=NC2` [Compound 191, 6-(4-chlorophenyl)-1-methyl-4H-benzo[c]isoxazolo[4,3-e]azepine], the IC50 on BRD4(BD1) (setting [1]) is more than 1000 nM.

As for `CNc1cc2c(cn1)-c1c(C)noc1CN=C2c1ccc(Cl)cc1` [Compound 258, 6-(4-Chlorophenyl)-N,1-dimethyl-4H-isoxazolo[5,4-c]pyrido[3,4-e]azepin-8-amine], the IC50 on BRD4(BD1) (setting [3]) is less than 500 nM.

On to `Cc1noc2c1-c1cn(C)nc1C(c1ccc(Cl)cc1)=NC2` [Compound 265, 6-(4-chlorophenyl)-1,8-dimethyl-4,8-dihydroisoxazolo[5,4-c]pyrazolo[4,3-e]azepine], for which, in the assay with IL-6 secretion (Table 14, THP-1 cells, LPS, 16 h), the IC50 was more than 1000 nM.

For `CCNC(=O)NC1N=C(c2ccc(OC(F)(F)F)cc2)c2ccccc2-c2c(C)noc21` (stereo not shown) [compound 259], the IC50 on BRD4(BD1) (setting [3]) is less than 500 nM.

`CCNC(=O)NC1N=C(c2ccc(F)cc2)c2ccccc2-c2c(C)noc21` (stereo not shown) [compound 260]: on BRD4(BD1) (setting [3]), the IC50 is less than 500 nM.

The values above are taken from patent US9522920B2, “Bromodomain inhibitors and uses thereof” (Constellation Pharmaceuticals, Inc., priority 2010, dated 2016).
